This experiment relates to HCV replicon cells. The experiment in a line: Cell-based HCV replicon assay (replicon RNA by Taqman real time PCR). Conditions: read-out: 1b EC50. (In antiviral work, replicon cells carry a viral genome segment that copies itself.)
Where [1] appears, read: Hepatitis C virus, 72 h, HCV replicon 1b, cells harvested on day 3.
Where [2] appears, read: HCV replicon 1b, cells harvested on day 3.

One may read the EC50 as the concentration that produces a half-maximal response.

SMILES strings stand for the structures. Read-outs that look alike come from different tables or passages of the source.

`COC(=O)[C@H](C)NP(=O)(OC[C@H]1O[C@@H](n2ccc(=O)[nH]c2=O)[C@](C)(N=[N+]=[N-])[C@@H]1O)Oc1ccccc1` (stereo partly drawn) [Compound 5]: the 50% effective concentration (EC50) (Hepatitis C virus, 72 h) stood at 3.3 µM.

Take `CC(C)OC(=O)[C@H](C)NP(=O)(OC[C@H]1O[C@@H](n2cnc3c(N4CCC4)nc(N)nc32)[C@](C)(N=[N+]=[N-])[C@@H]1O)Oc1ccccc1` (stereo partly drawn) [Compound 392]: the EC50 (Hepatitis C virus, 72 h) came to 5.6 µM.

With `COC(=O)[C@H](C)NP(=O)(OC[C@H]1O[C@@H](n2ccc(=O)[nH]c2=O)[C@](C)(N=[N+]=[N-])[C@@H]1O)Oc1ccccc1` (single isomer, unassigned) [Compound 159], the EC50 stood at 6.2 µM.

With `COc1nc(N)nc2c1ncn2[C@@H]1O[C@H](COP(=O)(N[C@@H](C)C(=O)OCc2ccccc2)Oc2ccccc2)[C@@H](O)[C@@]1(C)N=[N+]=[N-]` (stereo partly drawn) [Compound 246], the EC50 (Hepatitis C virus, 72 h) is 0.6 µM.

Turning to `CCOC(=O)c1cccc(OP(=O)(N[C@@H](C)C(=O)OC)OC[C@H]2O[C@@H](n3cnc4c(OC)nc(N)nc43)[C@](C)(N=[N+]=[N-])[C@@H]2O)c1` (stereo partly drawn) [Compound 221], the EC50 (Hepatitis C virus, 72 h) was determined as 0.8 µM.

Consider `CCOc1nc(N)nc2c1ncn2[C@@H]1O[C@H](COP(=O)(N[C@@H](C)C(=O)OC(C)C)Oc2ccc(Cl)c(Cl)c2)[C@@H](O)[C@@]1(C)N=[N+]=[N-]` (stereo partly drawn) [Compound 348], for which the EC50 (Hepatitis C virus, 72 h) is 5 µM.

Consider `COC(=O)[C@H](C)NP(=O)(OC[C@H]1O[C@@H](n2ccc(=O)[nH]c2=O)[C@](C)(N=[N+]=[N-])[C@@H]1O)Oc1cccc2ccccc12` (stereo partly drawn) [Compound 41], for which, where the note is “Hepatitis C virus, 72 h”, the EC50 amounted to 0.003 µM.

In the case of `CCOC(=O)[C@H](C)NP(=O)(OC[C@H]1O[C@@H](n2ccc(=O)[nH]c2=O)[C@](C)(N=[N+]=[N-])[C@@H]1O)Oc1ccc(Cl)cc1` (stereo partly drawn) [Compound 323], the EC50 was determined as 5.3 µM.

On to `CC(C)OP1(=O)OC[C@H]2O[C@@H](n3ccc(=O)[nH]c3=O)[C@](C)(N=[N+]=[N-])[C@@H]2O1` (stereo partly drawn) [Compound 43], for which, under setting [1], the EC50 was more than 100 µM.

Take `COc1nc(N)nc2c1ncn2[C@@H]1O[C@@H]2COP(=O)(OC3CCC3)O[C@H]2[C@@]1(C)N=[N+]=[N-]` (single isomer, unassigned) [Compound 104]: under setting [2], the EC50 came out at 10.9 µM.

On to `CCOc1nc(N)nc2c1ncn2[C@@H]1O[C@H](COP(=O)(N[C@@H](C)C(=O)OC)Oc2ccccc2)[C@@H](O)[C@@]1(C)N=[N+]=[N-]` (stereo partly drawn) [Compound 9], for which the EC50 (Hepatitis C virus, 72 h) was 0.8 µM.

As for `CCCOC(=O)[C@H](C)NP(=O)(OC[C@H]1O[C@@H](n2cnc3c(OCC)nc(N)nc32)[C@](C)(N=[N+]=[N-])[C@@H]1O)Oc1ccccc1` (single isomer, unassigned) [Compound 164], the concentration giving a half-maximal response (EC50) is 1 µM.

As to `CCCOC(=O)[C@H](C)NP(=O)(OC[C@H]1O[C@@H](n2ccc(=O)[nH]c2=O)[C@](C)(N=[N+]=[N-])[C@@H]1O)Oc1ccccc1` (stereo partly drawn) [Compound 28], the EC50 (Hepatitis C virus, 72 h) came out at 2.3 µM.

For the compound `CCCCOC(=O)[C@H](C)NP(=O)(OC[C@H]1O[C@@H](n2ccc(=O)[nH]c2=O)[C@](C)(N=[N+]=[N-])[C@@H]1O)Oc1ccccc1` (single isomer, unassigned) [Compound 170], the EC50 amounted to 1.5 µM.

Turning to `CCCOC(=O)[C@H](C)NP(=O)(OC[C@H]1O[C@@H](n2cnc3c(OCC)nc(N)nc32)[C@](C)(N=[N+]=[N-])[C@@H]1O)Oc1ccccc1` (stereo partly drawn) [Compound 29], for the setting “Hepatitis C virus, 72 h”, the EC50 was found to be 0.5 µM.

For `CCOC(=O)[C@H](C)NP(=O)(OC[C@H]1O[C@@H](n2cnc3c(OCC)nc(N)nc32)[C@](C)(N=[N+]=[N-])[C@@H]1O)Oc1ccc(Cl)cc1` (stereo partly drawn) [Compound 71], the EC50 (Hepatitis C virus, 72 h) was 0.6 µM.

For `CCOc1nc(N)nc2c1ncn2[C@@H]1O[C@H](CO)[C@@H](O)[C@@]1(C)N=[N+]=[N-]` [Compound 8], the EC50 under setting [1] is more than 100 µM.

For the compound `CCOc1nc(N)nc2c1ncn2[C@@H]1O[C@H](COP(=O)(N[C@@H](C)C(=O)OC(C)C)Oc2ccc(F)cc2)[C@@H](O)[C@@]1(C)N=[N+]=[N-]` (single isomer, unassigned) [Compound 365], the EC50 was 1.1 µM.

Take `CCOc1nc(N)nc2c1ncn2[C@@H]1O[C@H](COP(=O)(N[C@@H](C)C(=O)OC2CCCCC2)Oc2ccc(F)cc2)[C@@H](O)[C@@]1(C)N=[N+]=[N-]` (stereo partly drawn) [Compound 64]: the EC50 (Hepatitis C virus, 72 h) was 0.4 µM.

As for `C[C@H](NP(=O)(OC[C@H]1O[C@@H](n2ccc(=O)[nH]c2=O)[C@](C)(N=[N+]=[N-])[C@@H]1O)Oc1ccccc1)C(=O)OC1CCCCC1` (stereo partly drawn) [Compound 144], where the note is “Hepatitis C virus, 72 h”, the EC50 was determined as 0.7 µM.

As for `COc1nc(N)nc2c1ncn2[C@@H]1O[C@H](COP(=O)(N[C@@H](C)C(=O)OC(C)C)Oc2ccc(F)cc2)[C@@H](O)[C@@]1(C)N=[N+]=[N-]` (single isomer, unassigned) [Compound 269], under “Hepatitis C virus, 72 h”, the EC50 stood at 0.7 µM.

On to `CC(C)OC(=O)[C@H](C)NP(=O)(OC[C@H]1O[C@@H](n2ccc(N)nc2=O)[C@](C)(N=[N+]=[N-])[C@@H]1O)Oc1ccc2c(c1)OCO2` (single isomer, unassigned) [Compound 334], for which the 50% effective concentration (EC50) amounted to 13 µM.

For `COC(=O)[C@H](C)NP(=O)(OC[C@H]1O[C@@H](n2ccc(=O)[nH]c2=O)[C@](C)(N=[N+]=[N-])[C@@H]1O)Oc1ccc(Cl)cc1` (single isomer, unassigned) [Compound 327], the EC50 came out at 1.7 µM.

As for `COC(=O)[C@H](C)NP(=O)(OC[C@H]1O[C@@H](n2ccc(=O)[nH]c2=O)[C@](C)(N=[N+]=[N-])[C@@H]1O)Oc1ccccc1Cl` (stereo partly drawn) [Compound 236], the EC50 came out at 6.4 µM.

As to `COC(=O)[C@H](C)NP(=O)(OC[C@H]1O[C@@H](n2ccc(N)nc2=O)[C@](C)(N=[N+]=[N-])[C@@H]1O)Oc1ccc(Cl)cc1` (single isomer, unassigned) [Compound 186], the concentration giving a half-maximal response (EC50) came to 2 µM.

Take `CCOC(=O)[C@H](C)NP(=O)(OC[C@H]1O[C@@H](n2cnc3c(OC)nc(N)nc32)[C@](C)(N=[N+]=[N-])[C@@H]1O)Oc1ccccc1` (stereo partly drawn) [Compound 54]: the EC50 was 0.3 µM.

Turning to `COC(=O)[C@H](C)NP(=O)(OC[C@H]1O[C@@H](n2cnc3c(OC)nc(N)nc32)[C@](C)(N=[N+]=[N-])[C@@H]1O)Oc1ccccc1Cl` (single isomer, unassigned) [Compound 257], the EC50 worked out at 0.7 µM.

Consider `COC(=O)[C@H](C)NP(=O)(OC[C@H]1O[C@@H](n2cnc3c(OC)nc(N)nc32)[C@](C)(N=[N+]=[N-])[C@@H]1O)Oc1ccc(F)cc1` (single isomer, unassigned) [Compound 266], for which the half-maximal effective concentration (EC50) is 2.4 µM.

Consider `COC(=O)[C@H](C)NP(=O)(OC[C@H]1O[C@@H](n2ccc(N)nc2=O)[C@](C)(N=[N+]=[N-])[C@@H]1O)Oc1ccccc1Cl` (single isomer, unassigned) [Compound 201], for which the EC50 was determined as 12 µM.

As to `CCOc1nc(N)nc2c1ncn2[C@@H]1O[C@H](COP(=O)(N[C@@H](C)C(=O)OC(C)C)Oc2ccc(Cl)c(Cl)c2)[C@@H](O)[C@@]1(C)N=[N+]=[N-]` (single isomer, unassigned) [Compound 361], the EC50 amounted to 11.2 µM.

Consider `CCOc1nc(N)nc2c1ncn2[C@@H]1O[C@H](COP(=O)(N[C@@H](C)C(=O)OC(C)C)Oc2ccc(F)cc2)[C@@H](O)[C@@]1(C)N=[N+]=[N-]` (stereo partly drawn) [Compound 347], for which the EC50 (Hepatitis C virus, 72 h) stood at 0.7 µM.

With `C[C@H](NP(=O)(OC[C@H]1O[C@@H](n2ccc(N)nc2=O)[C@](C)(N=[N+]=[N-])[C@@H]1O)Oc1ccccc1Cl)C(=O)OCC(C)(C)C` (single isomer, unassigned) [Compound 181], the EC50 came to 3.8 µM.

For `CCCCOC(=O)[C@H](C)NP(=O)(OC[C@H]1O[C@@H](n2cnc3c(OCC)nc(N)nc32)[C@](C)(N=[N+]=[N-])[C@@H]1O)Oc1cccc2ccccc12` (single isomer, unassigned) [Compound 172], the EC50 is 0.4 µM.

As to `COc1nc(N)nc2c1ncn2[C@@H]1O[C@H](COP(=O)(N[C@@H](C)C(=O)OC2CCCCC2)Oc2ccccc2)[C@@H](O)[C@@]1(C)N=[N+]=[N-]` (stereo partly drawn) [Compound 239], where the note is “Hepatitis C virus, 72 h”, the 50% effective concentration (EC50) was 3.6 µM.

Take `COC(=O)[C@H](C)NP(=O)(OC[C@H]1O[C@@H](n2cnc3c(N4CCC4)nc(N)nc32)[C@](C)(N=[N+]=[N-])[C@@H]1O)Oc1ccccc1Cl` (stereo partly drawn) [Compound 389]: the EC50 is 2.3 µM.

As for `CCOC(=O)[C@H](C)NP(=O)(OC[C@H]1O[C@@H](n2ccc(=O)[nH]c2=O)[C@](C)(N=[N+]=[N-])[C@@H]1O)Oc1ccccc1` (single isomer, unassigned) [Compound 152], the EC50 was 0.5 µM.

Regarding `CCCOP1(=O)OC[C@H]2O[C@@H](n3ccc(=O)[nH]c3=O)[C@](C)(N=[N+]=[N-])[C@@H]2O1` (stereo partly drawn) [Compound 85], the EC50 under setting [1] is more than 100 µM.

On to `C[C@H](NP(=O)(OC[C@H]1O[C@@H](n2ccc(N)nc2=O)[C@](C)(N=[N+]=[N-])[C@@H]1O)Oc1ccccc1)C(=O)OC1CCCC1` (stereo partly drawn) [Compound 205], for which the EC50 came out at 15 µM.

`COC(=O)[C@H](C)NP(=O)(OC[C@H]1O[C@@H](n2cnc3c(OC)nc(N)nc32)[C@](C)(N=[N+]=[N-])[C@@H]1O)Oc1ccc(Cl)cc1` (single isomer, unassigned) [Compound 259]: the EC50 is 0.6 µM.

Take `COC(=O)[C@H](C)NP(=O)(OC[C@H]1O[C@@H](n2cnc3c(OC)nc(N)nc32)[C@](C)(N=[N+]=[N-])[C@@H]1O)Oc1ccc(Cl)cc1` (stereo partly drawn) [Compound 79]: the EC50 (Hepatitis C virus, 72 h) was determined as 0.2 µM.

Take `CCOc1nc(N)nc2c1ncn2[C@@H]1O[C@H](COP(=O)(N[C@@H](C)C(=O)OCC(C)(C)C)Oc2ccccc2)[C@@H](O)[C@@]1(C)N=[N+]=[N-]` (stereo partly drawn) [Compound 11]: the EC50 (Hepatitis C virus, 72 h) stood at 1.1 µM.

As to `COc1nc(N)nc2c1ncn2[C@@H]1O[C@H](COP(=O)(N[C@@H](C)C(=O)OCC(C)C)Oc2ccc(Cl)cc2)[C@@H](O)[C@@]1(C)N=[N+]=[N-]` (single isomer, unassigned) [Compound 295], the EC50 (Hepatitis C virus, 72 h) was found to be 0.2 µM.

Consider `COC(=O)[C@H](C)NP(=O)(OC[C@H]1O[C@@H](n2cnc3c(OC)nc(N)nc32)[C@](C)(N=[N+]=[N-])[C@@H]1O)Oc1ccc(F)cc1` (stereo partly drawn) [Compound 242], for which, for the setting “Hepatitis C virus, 72 h”, the concentration for a half-maximal effect (EC50) came out at 2.6 µM.

Turning to `CC(C)OP1(=O)OC[C@H]2O[C@@H](n3ccc(=O)[nH]c3=O)[C@](C)(N=[N+]=[N-])[C@@H]2O1` (stereo partly drawn) [Compound 44], the EC50 under setting [2] was more than 100 µM.

`CCOC(=O)[C@H](C)NP(=O)(OC[C@H]1O[C@@H](n2cnc3c(OCC)nc(N)nc32)[C@](C)(N=[N+]=[N-])[C@@H]1O)Oc1ccccc1` (stereo partly drawn) [Compound 10]: under “Hepatitis C virus, 72 h”, the EC50 came out at 0.9 µM.

Values taken from patent publication US9156872B2, “2′-azido substituted nucleoside derivatives and methods of use thereof for the treatment of viral diseases” (priority 2011, dated 2015).
